# In PMC9653409, “Generative deep learning enables the discovery of a potent and selective RIPK1 inhibitor” (Nature Communications, 2022):
# Several values for one entry are separate records, joined by “and”; a condition that tells them apart may be missing. Equal values may be shown once.
# Legend:
# TNFα-induced SIRS [1] = test: TNFα-induced SIRS mouse model: body temperature loss; assay type: in vivo, C57BL/6 female mice; conditions: for ΔTemperature Average: group average
# Protocol: (§1) The body temperatures of the mice were continuously monitored until 6 h after TNFα administration. At 6 h after TNFα injection, four mice in each group were killed at random, and the serums, heart, liver, spleen, lung, and kidney tissues were collected for analysis.
# TNFα-induced SIRS [2] = test: TNFα-induced SIRS mouse model: H&E histology of organs; assay type: in vivo, C57BL/6 female mice; conditions: 40 mg/kg i.p.
# Protocol: as §1, with “analysis. Mice mortality was continuously monitored until 72 h after TNFα administration.” for “analysis.”
# The heart, liver, spleen, lung, kidney and colon tissues were fixed directly in 4% paraformaldehyde (24 h), embedded in paraffin, and stained with H&E following standard procedures. All images were acquired using a Pannoramic MIDI scanner.
# pRIPK1, pRIPK3, pMLKL [3] = test: TNFα-induced SIRS mouse model: liver western blot; assay type: in vivo, C57BL/6 female mice; conditions: 40 mg/kg i.p.
# Protocol: (§2) The liver in the SIRS model and the colon in the IBD model were harvested, homogenated and sonicated in RIPA lysis buffer.
# (§3) The cell proteins or tissue proteins were separated in a polyacrylamide gel and transferred to a methanol-activated polyvinylidene fluoride membrane. The membrane was blocked for 2 h in Tris-buffered saline plus Tween-20 containing 5% milk and then immunoblotted sequentially with primary and secondary antibodies. Detection was performed with an ECL chemiluminescence kit (Abbkine). The antibodies used were human RIPK1 antibody (R&D, 334640, 1:1000), mouse RIPK1 antibody (Affinity, DF2642, 1:1000), human phospho-RIP (Ser166) rabbit mAb (Cell Signaling Technologies, 65746, 1:1000), mouse phospho-RIP (Ser321) rabbit mAb (Cell Signaling Technologies, 38662, 1:1000), human RIPK3 (B-2) antibody (Santa Cruz, sc-374639, 1:250), mouse RIPK3 antibody (Abcam, ab62344, 1:1000), human anti-RIP3 (phospho S227) antibody (Abcam, ab209384, 1:2000), mouse anti-RIP3 (phospho T231 + S232) antibody (Abcam, ab205421, 1:500), anti-MLKL (58–70) antibody (Sigma, M6697, 1:250), human anti-MLKL (phospho S358) antibody (Abcam, ab187091, 1:1000), mouse anti-MLKL (phospho S345) antibody (Abcam, ab196436, 1:1000), and β-actin (Proteintech, 66009-1-Ig, 1:1000).
# DSS-induced IBD [4] = test: DSS-induced IBD mouse model: colon length; assay type: in vivo, C57BL/6 female mice
# Protocol: (§4) DSS (3% w/v) was administered in drinking water ad libitum for 7 d (from day 0 to day 7). DSS solution was replaced three times on day 2, day 4, and day 6. […] Three mice in each group were killed at random on day 7, and distal colon tissues were collected for analysis. The mice weight and survival rate were recorded daily.
# DSS-induced IBD [5] = test: DSS-induced IBD mouse model: survival; assay type: in vivo, C57BL/6 female mice; parameters: key to 1 means death, 0 means survival: 1 means death; 0 means survival
# Protocol: as §4
# pRIPK1, pRIPK3, pMLKL [6] = test: DSS-induced IBD mouse model: colon western blot; assay type: in vivo, C57BL/6 female mice; conditions: 40 mg/kg i.p., day 7
# Protocol: as §2, §3
# [7] = biological target: panel of human kinases (kinase named in endpoint) (Homo sapiens, UniProt O60674); test: Kinase inhibitory activity profiling of RI-962@10 µM (406 kinases, Eurofins); assay type: biochemical; conditions: 10 µM; read-out: Activity (%), JAK2(h)
# Protocol: (§5) In vitro kinase activity assays were conducted through the Kinase Profiling Services provided by Eurofins (Eurofins, France). The protocol for the RIPK1 assay is briefly described as follows (Protocols for other kinases are very similar and can be found in http://www.eurofins.com/pharmadiscovery). RIPK1 kinase was incubated with the test compound in assay buffer containing 8 mM MOPS (pH 7.0), 0.2 mM EDTA, 250 μM […], 10 mM magnesium acetate, and 10 μM [γ-33P]-ATP for 15 min at room temperature. The reaction was initiated by the addition of the Mg/ATP mixture. After incubation for 40 min at room temperature, and the reaction was stopped by the addition of 3% phosphoric acid. A 10 μL portion of the reaction mixture was then spotted onto a P30 filter mat and washed four times for 4 min in 0.425% phosphoric acid and once in methanol prior to drying and scintillation counting.
# [8] = biological target: panel of human kinases (kinase named in endpoint) (Homo sapiens, UniProt P50750); test: as above; assay type: biochemical; conditions: 10 µM; read-out: Activity (%), CDK9/cyclin T1(h)
# Chain of panel of human kinases (kinase named in endpoint) (Homo sapiens, UniProt P50750) (P50750 whole entry): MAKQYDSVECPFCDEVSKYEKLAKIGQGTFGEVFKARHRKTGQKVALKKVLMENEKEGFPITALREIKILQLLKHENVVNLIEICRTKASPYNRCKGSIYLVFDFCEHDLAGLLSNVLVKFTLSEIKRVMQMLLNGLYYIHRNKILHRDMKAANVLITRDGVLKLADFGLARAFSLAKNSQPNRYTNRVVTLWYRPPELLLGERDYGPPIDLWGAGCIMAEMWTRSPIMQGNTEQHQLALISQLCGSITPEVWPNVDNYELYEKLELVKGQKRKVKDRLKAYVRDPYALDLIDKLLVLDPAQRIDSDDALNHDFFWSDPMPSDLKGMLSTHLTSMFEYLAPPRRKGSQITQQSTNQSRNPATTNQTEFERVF
# Protocol: as §5
# [9] = biological target: panel of human kinases (kinase named in endpoint) (Homo sapiens, UniProt Q00532); test: as above; assay type: biochemical; conditions: 10 µM; read-out: Activity (%), CDKL1(h)
# Protocol: as §5
# [10] = biological target: panel of human kinases (kinase named in endpoint) (Homo sapiens, UniProt Q02750); test: as above; assay type: biochemical; conditions: 10 µM; read-out: Activity (%), MEK1(h)
# Chain of panel of human kinases (kinase named in endpoint) (Homo sapiens, UniProt Q02750) (Q02750 whole entry): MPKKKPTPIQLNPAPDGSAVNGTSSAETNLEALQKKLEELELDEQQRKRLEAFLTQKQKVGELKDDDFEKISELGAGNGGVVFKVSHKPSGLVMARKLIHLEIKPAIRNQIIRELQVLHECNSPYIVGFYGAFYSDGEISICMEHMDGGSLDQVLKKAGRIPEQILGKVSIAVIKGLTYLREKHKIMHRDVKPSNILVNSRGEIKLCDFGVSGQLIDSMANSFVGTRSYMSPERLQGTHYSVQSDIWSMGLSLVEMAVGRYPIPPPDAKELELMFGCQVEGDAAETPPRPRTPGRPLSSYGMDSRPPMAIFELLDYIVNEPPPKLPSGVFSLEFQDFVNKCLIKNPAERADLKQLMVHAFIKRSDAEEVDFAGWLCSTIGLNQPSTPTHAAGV
# Protocol: as §5
# [11] = biological target: panel of human kinases (kinase named in endpoint) (Homo sapiens, UniProt Q15349); test: as above; assay type: biochemical; conditions: 10 µM; read-out: Activity (%), Rsk3(h)
# Chain of panel of human kinases (kinase named in endpoint) (Homo sapiens, UniProt Q15349) (Q15349 whole entry): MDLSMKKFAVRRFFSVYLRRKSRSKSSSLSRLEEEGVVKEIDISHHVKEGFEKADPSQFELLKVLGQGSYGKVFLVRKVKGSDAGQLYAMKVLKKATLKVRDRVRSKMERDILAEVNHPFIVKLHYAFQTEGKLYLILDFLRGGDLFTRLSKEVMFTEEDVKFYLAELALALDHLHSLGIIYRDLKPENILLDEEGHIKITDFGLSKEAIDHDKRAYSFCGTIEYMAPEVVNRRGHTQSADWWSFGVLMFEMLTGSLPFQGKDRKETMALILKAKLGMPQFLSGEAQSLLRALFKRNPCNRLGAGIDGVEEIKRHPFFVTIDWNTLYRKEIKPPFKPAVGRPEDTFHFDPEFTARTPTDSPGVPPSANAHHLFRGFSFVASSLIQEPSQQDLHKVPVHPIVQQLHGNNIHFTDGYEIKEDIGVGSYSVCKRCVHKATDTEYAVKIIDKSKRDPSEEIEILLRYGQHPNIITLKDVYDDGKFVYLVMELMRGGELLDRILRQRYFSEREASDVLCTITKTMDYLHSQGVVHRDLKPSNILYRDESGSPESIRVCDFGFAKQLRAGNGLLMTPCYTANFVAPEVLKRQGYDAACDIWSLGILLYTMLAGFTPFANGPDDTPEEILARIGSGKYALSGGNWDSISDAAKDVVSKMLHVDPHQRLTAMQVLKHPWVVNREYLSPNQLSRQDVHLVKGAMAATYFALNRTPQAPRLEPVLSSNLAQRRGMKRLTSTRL
# Protocol: as §5
# [12] = biological target: panel of human kinases (kinase named in endpoint) (Homo sapiens, UniProt Q16288); test: as above; assay type: biochemical; conditions: 10 µM; read-out: Activity (%), TrkC(h)
# Chain of panel of human kinases (kinase named in endpoint) (Homo sapiens, UniProt Q16288) (Q16288 32-839): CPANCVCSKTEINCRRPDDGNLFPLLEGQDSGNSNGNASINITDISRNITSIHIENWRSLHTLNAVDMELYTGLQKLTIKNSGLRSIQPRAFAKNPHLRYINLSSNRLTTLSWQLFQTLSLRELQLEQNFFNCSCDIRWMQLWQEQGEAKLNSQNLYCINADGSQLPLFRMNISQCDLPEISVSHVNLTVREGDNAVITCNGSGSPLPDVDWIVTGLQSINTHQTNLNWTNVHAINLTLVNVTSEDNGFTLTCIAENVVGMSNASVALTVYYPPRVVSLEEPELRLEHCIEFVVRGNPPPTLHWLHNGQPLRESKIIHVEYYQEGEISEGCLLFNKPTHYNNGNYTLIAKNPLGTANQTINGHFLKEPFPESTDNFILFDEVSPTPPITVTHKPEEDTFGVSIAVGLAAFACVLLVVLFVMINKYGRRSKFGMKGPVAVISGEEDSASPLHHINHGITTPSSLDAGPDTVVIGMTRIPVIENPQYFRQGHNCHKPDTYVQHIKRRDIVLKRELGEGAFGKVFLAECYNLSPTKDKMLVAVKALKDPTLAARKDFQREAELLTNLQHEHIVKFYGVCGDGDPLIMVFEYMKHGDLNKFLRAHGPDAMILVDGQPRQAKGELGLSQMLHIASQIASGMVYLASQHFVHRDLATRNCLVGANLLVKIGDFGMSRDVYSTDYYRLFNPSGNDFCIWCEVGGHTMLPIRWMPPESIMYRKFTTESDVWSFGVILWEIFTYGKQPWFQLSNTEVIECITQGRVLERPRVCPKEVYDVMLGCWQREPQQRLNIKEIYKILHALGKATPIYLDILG
# Protocol: as §5
# [13] = biological target: panel of human kinases (kinase named in endpoint) (Homo sapiens, UniProt Q9P0L2); test: as above; assay type: biochemical; conditions: 10 µM; read-out: Activity (%), MARK1(h)
# Chain of panel of human kinases (kinase named in endpoint) (Homo sapiens, UniProt Q9P0L2) (Q9P0L2 whole entry): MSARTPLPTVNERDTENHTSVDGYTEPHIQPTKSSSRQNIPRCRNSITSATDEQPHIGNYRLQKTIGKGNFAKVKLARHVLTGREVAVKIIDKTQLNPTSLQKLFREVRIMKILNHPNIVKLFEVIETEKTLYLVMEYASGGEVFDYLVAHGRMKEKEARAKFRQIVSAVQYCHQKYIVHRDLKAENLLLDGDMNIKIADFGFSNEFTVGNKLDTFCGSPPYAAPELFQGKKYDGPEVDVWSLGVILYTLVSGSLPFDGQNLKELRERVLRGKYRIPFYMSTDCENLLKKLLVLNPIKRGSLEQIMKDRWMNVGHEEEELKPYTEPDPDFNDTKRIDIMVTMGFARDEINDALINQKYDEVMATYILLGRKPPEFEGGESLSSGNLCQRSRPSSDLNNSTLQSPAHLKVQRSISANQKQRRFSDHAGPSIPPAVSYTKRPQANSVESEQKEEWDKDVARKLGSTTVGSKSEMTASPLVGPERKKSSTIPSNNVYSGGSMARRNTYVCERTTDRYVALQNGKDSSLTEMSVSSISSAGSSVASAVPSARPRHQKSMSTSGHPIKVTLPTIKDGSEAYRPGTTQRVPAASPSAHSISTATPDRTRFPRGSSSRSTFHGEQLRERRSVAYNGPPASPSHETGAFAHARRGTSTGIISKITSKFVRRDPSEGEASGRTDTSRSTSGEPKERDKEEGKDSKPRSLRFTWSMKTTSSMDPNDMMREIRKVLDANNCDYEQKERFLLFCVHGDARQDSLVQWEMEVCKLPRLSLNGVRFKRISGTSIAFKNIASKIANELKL
# Protocol: as §5
# [14] = biological target: panel of human kinases (kinase named in endpoint) (Homo sapiens, UniProt Q9Y5S2); test: as above; assay type: biochemical; conditions: 10 µM; read-out: Activity (%), MRCKβ(h)
# Chain of panel of human kinases (kinase named in endpoint) (Homo sapiens, UniProt Q9Y5S2) (Q9Y5S2 whole entry): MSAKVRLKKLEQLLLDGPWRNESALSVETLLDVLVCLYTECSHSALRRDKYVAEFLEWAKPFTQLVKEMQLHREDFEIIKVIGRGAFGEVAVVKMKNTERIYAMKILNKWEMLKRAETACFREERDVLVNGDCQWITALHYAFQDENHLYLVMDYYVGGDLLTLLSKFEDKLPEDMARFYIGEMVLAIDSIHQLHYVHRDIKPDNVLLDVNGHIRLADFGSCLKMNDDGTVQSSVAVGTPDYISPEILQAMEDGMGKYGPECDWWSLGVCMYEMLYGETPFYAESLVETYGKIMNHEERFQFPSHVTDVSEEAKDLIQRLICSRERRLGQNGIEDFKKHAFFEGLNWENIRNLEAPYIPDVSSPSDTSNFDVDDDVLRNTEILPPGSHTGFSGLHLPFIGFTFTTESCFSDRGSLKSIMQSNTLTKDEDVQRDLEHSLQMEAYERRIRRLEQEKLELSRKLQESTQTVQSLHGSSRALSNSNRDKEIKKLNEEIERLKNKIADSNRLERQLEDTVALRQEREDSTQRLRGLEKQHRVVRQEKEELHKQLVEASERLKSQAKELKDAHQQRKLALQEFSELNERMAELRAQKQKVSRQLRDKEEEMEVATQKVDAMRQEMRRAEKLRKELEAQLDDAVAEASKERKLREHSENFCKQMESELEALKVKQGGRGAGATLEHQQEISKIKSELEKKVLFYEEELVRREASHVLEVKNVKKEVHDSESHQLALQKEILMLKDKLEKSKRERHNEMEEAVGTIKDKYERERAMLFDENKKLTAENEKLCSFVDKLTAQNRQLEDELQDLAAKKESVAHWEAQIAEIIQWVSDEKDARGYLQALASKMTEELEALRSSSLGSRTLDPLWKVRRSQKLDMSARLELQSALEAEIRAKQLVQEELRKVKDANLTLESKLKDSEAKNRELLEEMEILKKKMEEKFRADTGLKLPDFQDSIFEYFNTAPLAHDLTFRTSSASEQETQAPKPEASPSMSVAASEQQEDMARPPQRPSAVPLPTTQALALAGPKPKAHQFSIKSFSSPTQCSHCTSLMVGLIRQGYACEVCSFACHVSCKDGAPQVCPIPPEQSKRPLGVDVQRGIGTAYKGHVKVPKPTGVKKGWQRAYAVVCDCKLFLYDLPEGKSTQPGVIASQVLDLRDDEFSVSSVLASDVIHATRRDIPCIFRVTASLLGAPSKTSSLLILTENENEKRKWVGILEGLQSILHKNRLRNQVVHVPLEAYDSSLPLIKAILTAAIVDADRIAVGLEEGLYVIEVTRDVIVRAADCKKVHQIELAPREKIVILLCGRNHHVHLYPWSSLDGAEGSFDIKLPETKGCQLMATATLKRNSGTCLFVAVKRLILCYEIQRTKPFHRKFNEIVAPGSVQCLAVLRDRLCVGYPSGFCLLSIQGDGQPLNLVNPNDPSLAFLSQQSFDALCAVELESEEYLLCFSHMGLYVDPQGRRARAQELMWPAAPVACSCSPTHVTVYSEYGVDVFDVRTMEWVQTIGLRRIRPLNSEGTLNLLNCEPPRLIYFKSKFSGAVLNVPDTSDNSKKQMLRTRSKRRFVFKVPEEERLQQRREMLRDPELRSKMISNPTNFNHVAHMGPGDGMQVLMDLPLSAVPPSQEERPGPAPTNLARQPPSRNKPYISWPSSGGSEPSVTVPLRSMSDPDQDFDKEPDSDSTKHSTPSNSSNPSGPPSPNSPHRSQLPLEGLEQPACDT
# Protocol: as §5
# [15] = 0 h after mTNFα, individual mice
structure (smiles),measurement,setting,value
CC(C)C(=O)Nc1nc2cc(-c3ccc4c(c3)c(C(=O)NC(C)c3ccccc3)cn4C)ccn2n1 (stereo not shown) [RI-962],ΔTemperature Average,TNFα-induced SIRS [1]; 0 h after mTNFα,0 °C
same,Temperature,TNFα-induced SIRS [1]; [15],36.3 °C (4×) and 36.5 °C (3×) and 36.2 °C (5×) and 36.6 °C (2×)
same,ΔTemperature,TNFα-induced SIRS [1]; [15],0 °C
same,TNFα-induced temperature loss,TNFα-induced SIRS [1]; 40 mg/kg i.p.,remarkably reduced
same,ΔTemperature Average,TNFα-induced SIRS [1]; 1 h after mTNFα,-0.06429 °C
same,Temperature,"TNFα-induced SIRS [1]; 1 h after mTNFα, individual mice",36.3 °C (5×) and 36.2 °C (5×) and 36.1 °C and 36.5 °C (2×) and 36.4 °C
same,ΔTemperature Average,TNFα-induced SIRS [1]; 2 h after mTNFα,0.05 °C
same,Temperature,"TNFα-induced SIRS [1]; 2 h after mTNFα, individual mice",36.3 °C (7×) and 36.4 °C and 36.5 °C (5×) and 36.6 °C
same,ΔTemperature Average,TNFα-induced SIRS [1]; 3 h after mTNFα,0.01429 °C
same,Temperature,"TNFα-induced SIRS [1]; 3 h after mTNFα, individual mice",36.3 °C (6×) and 36.4 °C (4×) and 36.5 °C (3×) and 36.2 °C
same,ΔTemperature Average,TNFα-induced SIRS [1]; 4 h after mTNFα,0.007143 °C
same,Temperature,"TNFα-induced SIRS [1]; 4 h after mTNFα, individual mice",36.2 °C (2×) and 36.5 °C (4×) and 36.4 °C (2×) and 36.3 °C (6×)
same,ΔTemperature Average,TNFα-induced SIRS [1]; 5 h after mTNFα,-0.02143 °C
same,Temperature,"TNFα-induced SIRS [1]; 5 h after mTNFα, individual mice",36.3 °C (7×) and 36.4 °C (3×) and 36.1 °C and 36.5 °C (2×) and 36.2 °C
same,ΔTemperature Average,TNFα-induced SIRS [1]; 6 h after mTNFα,-0.1571 °C
same,Temperature,"TNFα-induced SIRS [1]; 6 h after mTNFα, individual mice",36.3 °C (8×) and 36.4 °C and 35.9 °C (3×) and 36 °C and 36.2 °C
same,damage to the liver and kidney (H&E),TNFα-induced SIRS [2],attenuated damage to the liver and kidney
same,level of pRIPK1 in liver (western blot),"pRIPK1, pRIPK3, pMLKL [3]",substantially reduced the level of phosphorated RIPK1 (pRIPK1)
same,DSS-induced shortening of colon length,"DSS-induced IBD [4]; 40 mg/kg i.p. once a day, day 7",markedly reduced
same,Colon Length,"DSS-induced IBD [4]; Figure 9b, individual replicates 1-3",52.0 mm and 54.0 mm (2×)
same,survival rate,"DSS-induced IBD [5]; 40 mg/kg i.p. once a day for 10 d, 3% DSS 7 d",100%
same,"1 means death, 0 means survival","DSS-induced IBD [5]; Figure 9f, individual mice, time 14",0
same,"levels of pRIPK1, pRIPK3, and pMLKL in the colon","pRIPK1, pRIPK3, pMLKL [6]","reduced the levels of pRIPK1, pRIPK3, and pMLKL proteins"
same,activity at 10 µM,[7],107%
same,activity at 10 µM,[8],67%
same,activity at 10 µM,[9],98%
same,activity at 10 µM,[10],105%
same,activity at 10 µM,[11],110%
same,activity at 10 µM,[12],56%
same,activity at 10 µM,[13],99%
same,activity at 10 µM,[14],79%
